ChEMBL document CHEMBL5223172, “Development of fluorophore labeled or biotinylated anticancer small molecule NSC243928” (Bioorg Med Chem, 2023)
pKd: −log10 of the molar value. Calls of active or inactive are those of the source. The calls are words filed in the database; no cut-off is given here.

What was measured:
[1] = target: T1, Lymphocyte antigen 6K (Homo sapiens) (UniProt Q17RY6); test: Binding affinity to human wild type LY6K at 1.25 to 5 uM measured upto 250 sec by SPR assay; conditions: dose 1.25-5 µM
T1 sequence (whole entry): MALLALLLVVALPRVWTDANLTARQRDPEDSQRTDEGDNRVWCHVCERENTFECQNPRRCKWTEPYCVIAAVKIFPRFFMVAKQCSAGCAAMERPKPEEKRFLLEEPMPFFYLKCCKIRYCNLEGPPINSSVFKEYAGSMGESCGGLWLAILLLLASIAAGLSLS

Lymphocyte antigen 6K = target: T2, Lymphocyte antigen 6K (Homo sapiens, UniProt Q17RY6); test: Binding affinity to human wild type LY6K assessed as dissociation constant measured upto 250 sec by SPR assay
T2 sequence (Q17RY6 whole entry): T1 sequence (whole entry)

[2] = target: T1, Lymphocyte antigen 6K (Homo sapiens); test: Inhibition of LY6K in human Hs-578T cells assessed as reduction in cell viability measured after 48 hrs by Cell titer blue assay; assay type: cell-based; conditions: dose 5-10 µM
Hs-578T = test: Antiproliferative activity against human Hs-578T cells transfected with LY6K-shRNA assessed as reduction in cell viability at 5 to 10 uM measured after 48 hrs by Cell titer blue assay; assay type: functional, cell-based; conditions: dose 5-10 µM
[3] = Drug uptake in human Serum starved Hs-578T cells assessed as drug localization in membrane of the cell at 2 uM measured after 2 hrs by DAPI staining based confocal microscopy; assay type: ADME
[4] = Drug uptake in human Serum starved Hs-578T cells assessed as drug localization in cytoplasm of cell at 2 uM measured after 2 hrs by DAPI staining based confocal microscopy; assay type: ADME
[5] = Drug uptake in human Serum starved Hs-578T cells assessed as drug localization in perinuclear region of cell at 2 uM measured after 2 hrs by DAPI staining based confocal microscopy; assay type: ADME

Structure (SMILES)	Activity [1]	pKd (Lymphocyte antigen 6K)	Drug uptake [3]	Drug uptake [4]	Drug uptake [5]	Activity [2]	Activity (Hs-578T)
CCS(=O)(=O)Nc1ccc(Nc2c3ccccc3nc3cc(C(=O)OCc4ccccc4)ccc23)c(OC)c1	Active	–	–	–	–	–	–
CCS(=O)(=O)Nc1ccc(Nc2c3ccccc3nc3ccccc23)c(OC)c1	Dose-Dependent Effect	5.33	–	–	–	Dose-Dependent Effect	inactive
CCS(=O)(=O)Nc1ccc(Nc2c3ccccc3nc3cc([N+](=O)[O-])ccc23)c(OC)c1	Dose-Dependent Effect	–	–	–	–	–	–

The next lines start with results.

Activity [1]	pKd (Lymphocyte antigen 6K)	Drug uptake [3]	Drug uptake [4]	Drug uptake [5]	Structure (SMILES)	Activity [2]	Activity (Hs-578T)
Active	–	–	–	–	CCS(=O)(=O)Nc1ccc(Nc2c3ccccc3nc3cc(NC(=O)CCCC[C@@H]4SC[C@@H]5NC(=O)N[C@@H]54)ccc23)c(OC)c1	–	–
–	6.52	–	–	–	CCS(=O)(=O)Nc1ccc(Nc2c3ccccc3nc3cc(C(=O)NCCOCCOCCOCCOCCOCCOCCOCCNC(=O)CCCC[C@@H]4SC[C@@H]5NC(=O)N[C@@H]54)ccc23)c(OC)c1	Dose-Dependent Effect	inactive
Active	–	Active	Active	Active	CCS(=O)(=O)Nc1ccc(Nc2c3ccccc3nc3cc(C(=O)NCCCCCCNc4ccc([N+](=O)[O-])c5nonc45)ccc23)c(OC)c1	Dose-Dependent Effect	inactive
